ChEMBL document CHEMBL1201862, “PubChem BioAssay data set” (2004)
The source made the active and inactive calls.

What was measured:
[1] = target: T1, Short transient receptor potential channel 4 (Mus musculus, UniProt Q9QUQ5); experiment: calcium entry via TRPC4 opening agents – cell-based, HEK293 TRPC4/mu-opioid, Fluo-4 calcium, dose response (AID 434937); format: functional
T1 sequence (Q9QUQ5 whole entry): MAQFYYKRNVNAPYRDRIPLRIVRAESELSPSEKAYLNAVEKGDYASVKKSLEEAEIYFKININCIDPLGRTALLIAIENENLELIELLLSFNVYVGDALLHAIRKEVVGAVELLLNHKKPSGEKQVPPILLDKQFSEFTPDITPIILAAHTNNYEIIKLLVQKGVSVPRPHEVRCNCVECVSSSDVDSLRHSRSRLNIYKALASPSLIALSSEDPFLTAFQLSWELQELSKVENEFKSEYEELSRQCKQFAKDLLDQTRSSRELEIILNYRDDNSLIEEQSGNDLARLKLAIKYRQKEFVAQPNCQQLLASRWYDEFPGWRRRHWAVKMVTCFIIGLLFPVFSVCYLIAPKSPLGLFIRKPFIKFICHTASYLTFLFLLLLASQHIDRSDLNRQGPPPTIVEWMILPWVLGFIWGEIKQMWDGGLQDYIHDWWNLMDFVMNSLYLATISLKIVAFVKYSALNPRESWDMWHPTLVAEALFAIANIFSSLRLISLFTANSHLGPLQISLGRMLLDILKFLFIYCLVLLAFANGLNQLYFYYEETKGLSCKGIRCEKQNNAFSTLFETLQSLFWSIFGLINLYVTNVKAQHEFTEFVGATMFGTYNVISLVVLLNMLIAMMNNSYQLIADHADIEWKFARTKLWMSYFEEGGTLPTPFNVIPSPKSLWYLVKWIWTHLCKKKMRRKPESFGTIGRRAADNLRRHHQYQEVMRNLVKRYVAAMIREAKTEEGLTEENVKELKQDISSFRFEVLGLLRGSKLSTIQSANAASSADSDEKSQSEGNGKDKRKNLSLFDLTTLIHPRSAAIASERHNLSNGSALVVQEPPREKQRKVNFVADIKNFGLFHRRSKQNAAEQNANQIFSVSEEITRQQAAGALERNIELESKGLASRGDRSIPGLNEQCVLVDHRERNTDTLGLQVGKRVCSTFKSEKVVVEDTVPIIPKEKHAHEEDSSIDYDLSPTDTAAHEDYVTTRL

[2] = Vero E6 cell cytotoxicity, dose response, cytotoxicity control for non-replicating M. tuberculosis project, secondary assay (AID 492998); format: functional, VeroE6; settings: Vero C1008
cells = format: functional
[3] = HepG2 cell cytotoxicity, dose response, cytotoxicity control for non-replicating M. tuberculosis project (AID 489018); format: functional; settings: Mycobacterium tuberculosis
[4] = THP-1 cell cytotoxicity, dose response, cytotoxicity control for non-replicating M. tuberculosis project (AID 489025); format: functional
[5] = target: T2, RNA-binding protein pos-1 (Caenorhabditis elegans, UniProt G5EF15); experiment: disruptors of C. elegans POS-1 RNA interaction – biochemical, fluorescence polarization, dose response (AID 1964);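 note: purified POS-1 fused to maltose binding protein made in E. coli; potency of compounds blocking POS-1 binding to fluorescent RNA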
T2 sequence (G5EF15 whole entry): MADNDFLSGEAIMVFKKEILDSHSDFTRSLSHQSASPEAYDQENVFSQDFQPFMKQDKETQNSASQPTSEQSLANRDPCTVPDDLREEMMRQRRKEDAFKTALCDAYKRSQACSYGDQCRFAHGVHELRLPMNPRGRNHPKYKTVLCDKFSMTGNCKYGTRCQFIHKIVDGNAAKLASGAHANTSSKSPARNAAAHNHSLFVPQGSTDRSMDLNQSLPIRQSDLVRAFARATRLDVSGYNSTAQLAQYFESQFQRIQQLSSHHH

[6] = target: T3, Zinc finger protein mex-5 (Caenorhabditis elegans, UniProt Q9XUB2); experiment: potency of MEX-5 RNA-binding blockers – biochemical, C. elegans, fluorescence polarization, dose response (AID 1960)
T3 sequence (Q9XUB2 whole entry): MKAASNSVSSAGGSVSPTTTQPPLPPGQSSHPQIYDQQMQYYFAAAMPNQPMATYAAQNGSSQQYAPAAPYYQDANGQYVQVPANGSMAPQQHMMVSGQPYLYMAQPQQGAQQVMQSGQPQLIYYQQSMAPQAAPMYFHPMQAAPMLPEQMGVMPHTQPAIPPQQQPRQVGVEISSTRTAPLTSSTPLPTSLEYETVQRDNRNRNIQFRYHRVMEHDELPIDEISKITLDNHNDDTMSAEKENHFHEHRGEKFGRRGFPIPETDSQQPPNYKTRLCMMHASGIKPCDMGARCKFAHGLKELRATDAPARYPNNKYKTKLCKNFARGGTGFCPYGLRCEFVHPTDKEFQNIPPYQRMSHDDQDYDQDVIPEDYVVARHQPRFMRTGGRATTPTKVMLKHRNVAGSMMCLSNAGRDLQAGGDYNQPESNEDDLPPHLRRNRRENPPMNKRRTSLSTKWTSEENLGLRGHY

Aminopeptidase N = target: T4, Aminopeptidase N (Plasmodium falciparum FcB1/Columbia, UniProt O96935); experiment: malaria alanyl aminopeptidase activity blockers – biochemical, fluorogenic H-Leu-NHMec substrate, 1536-well (AID 1445); design: species or system Plasmodium falciparum 3D7, 3D7
T4 sequence (O96935 whole entry): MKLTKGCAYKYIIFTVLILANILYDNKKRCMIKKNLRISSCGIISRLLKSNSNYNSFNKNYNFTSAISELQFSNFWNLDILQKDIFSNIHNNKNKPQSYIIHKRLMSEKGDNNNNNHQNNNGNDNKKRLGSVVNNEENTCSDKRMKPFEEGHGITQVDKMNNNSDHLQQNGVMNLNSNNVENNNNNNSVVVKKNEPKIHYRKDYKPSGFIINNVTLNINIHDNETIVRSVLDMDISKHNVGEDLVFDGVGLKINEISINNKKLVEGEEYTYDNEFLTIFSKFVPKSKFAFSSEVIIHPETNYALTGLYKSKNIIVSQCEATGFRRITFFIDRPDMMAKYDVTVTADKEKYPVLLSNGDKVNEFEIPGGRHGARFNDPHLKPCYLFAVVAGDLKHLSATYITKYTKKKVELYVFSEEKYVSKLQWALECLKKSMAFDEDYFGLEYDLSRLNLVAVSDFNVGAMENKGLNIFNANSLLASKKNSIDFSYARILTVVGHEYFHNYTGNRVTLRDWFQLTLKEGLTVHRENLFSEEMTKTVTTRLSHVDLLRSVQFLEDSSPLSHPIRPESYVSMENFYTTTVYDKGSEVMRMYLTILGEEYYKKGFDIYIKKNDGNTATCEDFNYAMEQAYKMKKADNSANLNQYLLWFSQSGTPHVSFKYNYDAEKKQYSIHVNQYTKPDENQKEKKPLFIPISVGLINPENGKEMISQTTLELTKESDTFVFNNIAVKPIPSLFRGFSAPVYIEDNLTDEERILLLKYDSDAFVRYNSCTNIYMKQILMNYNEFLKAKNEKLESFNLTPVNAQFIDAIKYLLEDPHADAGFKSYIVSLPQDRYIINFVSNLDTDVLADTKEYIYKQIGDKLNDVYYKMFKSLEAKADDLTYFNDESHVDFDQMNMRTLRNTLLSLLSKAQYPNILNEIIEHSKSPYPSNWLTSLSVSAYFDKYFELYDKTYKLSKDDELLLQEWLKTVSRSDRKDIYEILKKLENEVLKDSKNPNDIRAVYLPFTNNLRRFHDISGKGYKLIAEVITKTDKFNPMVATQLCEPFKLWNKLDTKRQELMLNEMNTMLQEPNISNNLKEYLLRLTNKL

[7] = target: T5, Microphthalmia-associated transcription factor (Homo sapiens, UniProt O75030); experiment: reducers of TRPM1 reporter luminescence, concentration series – cell-based, SK-MEL-5, cherry-picked, set 3, MITF inhibitor project, dose response (AID 493073); format: functional;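 note: SK-MEL-5 melanoma cells with luciferase driven by the MITF target TRPM1 promoter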
T5 sequence (O75030 whole entry): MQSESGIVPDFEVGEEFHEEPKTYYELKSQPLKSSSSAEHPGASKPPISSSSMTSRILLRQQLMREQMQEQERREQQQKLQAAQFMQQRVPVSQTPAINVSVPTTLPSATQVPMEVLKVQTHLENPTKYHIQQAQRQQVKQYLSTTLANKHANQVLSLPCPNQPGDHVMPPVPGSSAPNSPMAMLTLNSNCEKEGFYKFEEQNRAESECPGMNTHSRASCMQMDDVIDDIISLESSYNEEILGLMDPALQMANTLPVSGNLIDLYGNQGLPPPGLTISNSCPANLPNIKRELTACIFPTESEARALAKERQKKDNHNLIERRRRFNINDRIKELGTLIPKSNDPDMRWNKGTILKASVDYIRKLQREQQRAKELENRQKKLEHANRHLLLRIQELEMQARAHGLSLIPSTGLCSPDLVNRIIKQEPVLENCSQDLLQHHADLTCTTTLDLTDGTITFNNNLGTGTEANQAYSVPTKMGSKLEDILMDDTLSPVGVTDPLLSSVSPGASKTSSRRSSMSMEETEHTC

[8] = target: T6, Heat shock factor protein 1 (Mus musculus, UniProt P38532); experiment: enhancement of HSF1-driven luciferase signal – cell-based, NIH3T3, luminescence, dose retest, confirmation (AID 435004); format: functional;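 note: stress induced by proteasome inhibitor MG132 added 30 min after compound; luciferase reporter driven by HSF1 response element in NIH3T3 cells; actives raise luminescence as potentiators of the MG132 stress response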
T6 sequence (P38532 whole entry): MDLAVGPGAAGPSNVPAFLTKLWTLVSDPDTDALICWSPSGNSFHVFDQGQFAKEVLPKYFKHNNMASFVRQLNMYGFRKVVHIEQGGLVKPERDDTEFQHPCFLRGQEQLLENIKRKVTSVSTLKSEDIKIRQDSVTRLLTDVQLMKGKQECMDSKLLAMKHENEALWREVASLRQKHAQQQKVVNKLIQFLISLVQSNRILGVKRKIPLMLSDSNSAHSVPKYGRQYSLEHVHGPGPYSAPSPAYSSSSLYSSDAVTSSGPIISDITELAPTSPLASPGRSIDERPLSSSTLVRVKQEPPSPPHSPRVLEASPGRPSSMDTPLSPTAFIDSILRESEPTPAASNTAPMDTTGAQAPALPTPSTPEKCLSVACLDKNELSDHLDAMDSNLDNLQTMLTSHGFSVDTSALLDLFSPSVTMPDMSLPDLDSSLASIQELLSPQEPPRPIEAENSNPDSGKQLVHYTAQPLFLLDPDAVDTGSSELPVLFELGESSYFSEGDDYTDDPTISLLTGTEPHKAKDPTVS

[9] = viability of HCT116 lacking mutant beta-catenin – cell-based, human colon tumor, dose response (AID 1045); format: functional;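 note: HCT116 colon tumor cells with beta catenin knocked out; cells exposed to compound for 60 hours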
[10] = viability of PTEN-deleted HCT116 cells – cell-based, HCT116 PTEN knockout, dose response (AID 1047); format: functional;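 note: HCT116 colon tumor cells with PTEN knocked out; cells exposed to compound for 60 hours before readout; potency for loss of cell viability measured by luminescence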
[11] = Trypanosoma cruzi growth suppression in host cells – NIH3T3 host cells, beta-gal luminescence, confirmation (AID 2044); format: functional, cell-based;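 note: intracellular parasites grown in NIH/3T3 mouse fibroblasts as host cells; luminescent beta-galactosidase reporter signal from transgenic T. cruzi replicating inside host cells; inhibitors lower the luminescence signal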
[12] = NIH3T3 cell viability loss – ATP luminescence, mouse fibroblasts, counter-screen, dose response (AID 2010); format: functional, cell-based;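 note: cells exposed to compound for about 90 hours before reading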
[13] = target: G-protein coupled receptor 55 (Homo sapiens, UniProt Q9Y2T6); experiment: selective activators of receptor GPR55 – imaging, U2OS cells, beta-arrestin-GFP redistribution, primary screen (AID 1961); format: functional
G-protein coupled receptor 55, sequence (Q9Y2T6 whole entry): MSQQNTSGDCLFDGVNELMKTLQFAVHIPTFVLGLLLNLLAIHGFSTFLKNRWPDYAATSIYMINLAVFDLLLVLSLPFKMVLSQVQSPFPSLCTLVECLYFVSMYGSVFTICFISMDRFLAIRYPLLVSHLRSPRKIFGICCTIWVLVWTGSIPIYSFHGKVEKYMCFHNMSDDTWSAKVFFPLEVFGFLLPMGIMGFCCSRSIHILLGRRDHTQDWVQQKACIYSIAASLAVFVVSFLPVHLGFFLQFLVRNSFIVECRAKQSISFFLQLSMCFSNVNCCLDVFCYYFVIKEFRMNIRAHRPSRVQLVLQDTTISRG

[14] = target: T7, Ubiquitin-conjugating enzyme E2 N (Homo sapiens, UniProt P61088); format: functional;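 note: Dose-response confirmation in a TR-FRET assay detecting UBC13-driven polyubiquitin chain formation, inhibition measured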
T7 sequence (P61088 whole entry): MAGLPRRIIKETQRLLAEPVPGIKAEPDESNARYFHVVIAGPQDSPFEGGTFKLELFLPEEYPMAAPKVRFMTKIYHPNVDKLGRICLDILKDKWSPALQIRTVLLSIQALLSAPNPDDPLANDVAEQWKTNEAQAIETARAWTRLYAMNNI

Beta-galactosidase = Beta-galactosidase (Escherichia coli, UniProt Q8VNN2); experiment: detection-enzyme interference by beta-gal modulators – biochemical, E. coli enzyme, set 3, artefact control for CCR6 antagonist project, dose response (AID 504712); format: functional
Beta-galactosidase, sequence (Q8VNN2 whole entry, the tested form may be a part): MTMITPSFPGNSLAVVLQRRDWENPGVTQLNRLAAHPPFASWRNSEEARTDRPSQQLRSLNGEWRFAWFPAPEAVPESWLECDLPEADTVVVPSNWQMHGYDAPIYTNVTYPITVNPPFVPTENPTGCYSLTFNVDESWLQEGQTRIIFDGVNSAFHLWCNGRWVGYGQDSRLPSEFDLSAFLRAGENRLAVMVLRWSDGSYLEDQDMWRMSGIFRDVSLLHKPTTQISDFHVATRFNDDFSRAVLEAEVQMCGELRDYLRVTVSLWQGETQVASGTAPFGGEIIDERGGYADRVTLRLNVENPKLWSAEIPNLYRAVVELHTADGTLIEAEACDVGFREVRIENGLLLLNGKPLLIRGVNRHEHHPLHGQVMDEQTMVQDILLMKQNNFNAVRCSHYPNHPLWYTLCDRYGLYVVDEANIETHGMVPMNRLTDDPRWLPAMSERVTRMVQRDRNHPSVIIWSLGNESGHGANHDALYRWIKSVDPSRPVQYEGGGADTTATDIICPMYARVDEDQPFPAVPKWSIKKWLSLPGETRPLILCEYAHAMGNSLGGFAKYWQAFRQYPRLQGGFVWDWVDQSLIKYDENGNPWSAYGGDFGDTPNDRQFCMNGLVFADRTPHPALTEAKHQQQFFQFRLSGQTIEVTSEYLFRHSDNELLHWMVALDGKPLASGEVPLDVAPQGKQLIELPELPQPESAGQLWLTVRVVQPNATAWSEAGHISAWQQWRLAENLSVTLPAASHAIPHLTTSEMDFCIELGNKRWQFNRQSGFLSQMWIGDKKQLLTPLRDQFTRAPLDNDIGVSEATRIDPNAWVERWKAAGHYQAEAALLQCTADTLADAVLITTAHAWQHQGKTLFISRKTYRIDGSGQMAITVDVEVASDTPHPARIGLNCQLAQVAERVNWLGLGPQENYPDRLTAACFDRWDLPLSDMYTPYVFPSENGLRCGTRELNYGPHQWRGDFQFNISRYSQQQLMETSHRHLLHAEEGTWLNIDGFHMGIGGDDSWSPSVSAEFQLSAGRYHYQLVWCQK

[15] = target: T8, Polyadenylate-binding protein 1 (Homo sapiens, UniProt P11940); experiment: MLLE domain peptide-binding blockers, IC50 – biochemical, fluorescence polarization, FITC-PAM2 peptide, dose response (AID 602259); format: functional; settings: read-out: IC50_Mean
T8 sequence (P11940 whole entry, the tested form may be a part): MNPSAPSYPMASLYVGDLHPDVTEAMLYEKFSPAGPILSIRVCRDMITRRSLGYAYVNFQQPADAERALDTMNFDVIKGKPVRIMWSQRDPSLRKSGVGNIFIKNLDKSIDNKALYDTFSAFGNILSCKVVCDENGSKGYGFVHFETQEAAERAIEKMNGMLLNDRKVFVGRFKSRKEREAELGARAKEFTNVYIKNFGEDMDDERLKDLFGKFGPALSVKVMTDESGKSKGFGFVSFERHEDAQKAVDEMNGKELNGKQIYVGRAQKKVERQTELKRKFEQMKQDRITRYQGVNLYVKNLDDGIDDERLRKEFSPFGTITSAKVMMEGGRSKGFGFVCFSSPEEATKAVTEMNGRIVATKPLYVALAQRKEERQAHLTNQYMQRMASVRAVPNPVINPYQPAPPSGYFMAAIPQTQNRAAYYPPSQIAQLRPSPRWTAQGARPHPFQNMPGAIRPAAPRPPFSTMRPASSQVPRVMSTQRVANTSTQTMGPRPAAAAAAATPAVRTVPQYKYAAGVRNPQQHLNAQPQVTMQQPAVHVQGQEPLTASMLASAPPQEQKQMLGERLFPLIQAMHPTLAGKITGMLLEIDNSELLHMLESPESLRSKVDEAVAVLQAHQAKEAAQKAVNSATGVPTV

[16] = target: T8, Polyadenylate-binding protein 1; experiment: MLLE binding blockers, Cy5 peptide tracer – biochemical, fluorescence polarization, Cy5-PAM2 peptide, secondary, miRNA deadenylation inhibitor project, dose response (AID 602260); format: functional; settings: read-out: IC50_Mean

CC1CC(C)CN(CCCNC(=O)c2nn(C)c3c2CS(=O)(=O)c2ccccc2-3)C1 (centres undefined)
EC50 [1]: 237 nM (active)

Cc1ccc(NC(=O)c2ccc([N+](=O)[O-])o2)c(C)c1
CC50 [2]: 6.74 µM (active) | IC50 (cells): 3.46 µM (active) | CC50 [3]: > 20 µM (active) | CC50 [4]: 15.4 µM (active)

Oc1[nH]c2ccc(Br)cc2c1N=Nc1nn[nH]n1
EC50 [5]: 14 µM (active) | EC50 [6]: 5.18 µM (active) | IC50 (Aminopeptidase N): 26.5 µM (active)

O=[N+]([O-])c1ccc(-n2nnnc2-c2ccccc2)c([N+](=O)[O-])c1
AC50 [7]: 7.37 µM (active) | EC50 [8]: 9.09 µM (active) | CC50 [2]: 8.41 µM (active) | IC50 (cells): 5.22 µM (active) | EC50 [9]: 5.3 µM (active) | EC50 [10]: 4.92 µM (active) | CC50 [3]: 19.2 µM (active) | EC50 [11]: 1.75 µM (active) | CC50 [4]: 19.6 µM (active) | EC50 [12]: > 60 µM (not active)

OCCNc1nc(O)c2c(ncn2Cc2ccccc2)n1
EC50 [13]: > 32 µM (inactive)

NC(=O)c1nsc(C(=O)N(c2ccc(F)cc2)C(C(=O)NCC2CCCO2)c2c[nH]c3ccccc23)c1N (centres undefined)
IC50 [14]: > 20 µM (inactive)

O=C(CSc1nccn1-c1ncc(C(F)(F)F)cc1Cl)c1ccc(Cl)cc1
IC50 (Beta-galactosidase): > 66.6 µM (inactive)

COc1ccc(-n2c3c(cc(C(=O)NNc4ccccc4)c2=O)C(=O)CC(C)(C)C3)cc1
EC50 [1]: 1060 nM (active)

Cc1ccc(/C=C2\SC(=S)N(c3c(C)n(C)n(-c4ccccc4)c3=O)C2=O)cc1
IC50 [15]: > 66 µM (inactive) | IC50 [16]: > 66 µM (inactive) | IC50 (Aminopeptidase N): 120 µM (active)

O=C(CNC(=O)c1ccccc1Cl)N/N=C/c1ccc([N+](=O)[O-])s1
CC50 [2]: 13.6 µM (active) | IC50 (cells): 36.6 µM (active) | CC50 [3]: > 20 µM (active) | CC50 [4]: 25 µM (active)
